# Experimental data published in patent US6114326A, “Use of cabergoline in the treatment of restless legs syndrome” (priority 1999, dated 2000).
# Entries after “also recorded” stand apart in the source; their conditions may differ.
# Key:
# [1] = test system: D2 family of receptors; conditions: cited from earlier work
# [2] = test system: restless legs syndrome patients; experiment: Safety / adverse events, tolerability, augmentation in 12-week open label trial; assay type: in vivo
# Description: Apart from levodopa, patients had to stop taking any medication known to have positive or negative effect on RLS two weeks before baseline (i.e., other dopamine agonists, benzodiazepines, opioids or other psychotropic agents). Patients who were on levodopa therapy were allowed to either stop levodopa prior to study entry or to continue, taper or discontinue levodopa during the study. To prevent well known peripheral dopaminergic side-effects such as nausea, vomiting, vertigo and arterial hypotension domperidone (not available in the United States) was comedicated initially and also tapered if possible. […] Neurological case history, examination, electrocardiogramm, chest x-ray and polysomnography were performed to ensure that selection criteria were fulfilled. A two-night PSG (including one night of adaptation) was performed to evaluate the diagnosis and inclusion/exclusion criteria regardless if patients were on or off levodopa. After a 12-week treatment period patients were studied again for one night in the sleep laboratory. Subjective ratings were obtained at baseline, week 4, week 8 and at the endpoint after 12 weeks. In addition patients were monitored by phone calls to note any adverse events and to determine whether to increase the dosage of the study drug, to decrease levodopa and to decrease domperidone. The time schedule of phone calls was variable and the frequency mostly dependent on the presence of simultaneous levodopa therapy. Dosing. […] Medication was taken 2 hours prior to bedtime. Initial therapy consisted of one 0.5 mg tablet. […] The increased dose could be decreased again if necessary. […] Subjects who were pretreated with levodopa were asked to decrease levodopa simultaneously if possible. Physician's rating. The physician rated the severity of illness at baseline (normal to extremely ill), the global improvement (general condition very much worse to very much better) and the side effects by use of the Clinical Global Impressions (CGI). Safety. Safety of Cabergoline was assessed to the type and frequency of adverse event, clinically significant changes in laboratory data or ECG and premature discontinuation of study participation. Adverse events were classified as serious versus nonserious and characterized by intensity, relationship to drug treatment, frequency, course and therapeutic intervention.
# [3] = test system: restless legs syndrome patients; experiment: as above; assay type: in vivo; conditions: 6 months or more after treatment, compared with L-Dopa
# [4] = test system: restless legs syndrome patients; experiment: Patients' subjective ratings (PGI, RLS severity, sleep satisfaction, sleep diary, quality of life) in 12-week open label trial; assay type: in vivo
# Method: Efficacy was assessed by polysomnography and subjective ratings.
# Following a 2-week baseline period, all patients were treated with cabergoline in an open trial for 12 weeks. Apart from levodopa, patients had to stop taking any medication known to have positive or negative effect on RLS two weeks before baseline (i.e., other dopamine agonists, benzodiazepines, opioids or other psychotropic agents). Patients who were on levodopa therapy were allowed to either stop levodopa prior to study entry or to continue, taper or discontinue levodopa during the study. To prevent well known peripheral dopaminergic side-effects such as nausea, vomiting, vertigo and arterial hypotension domperidone (not available in the United States) was comedicated initially and also tapered if possible. […] Neurological case history, examination, electrocardiogramm, chest x-ray and polysomnography were performed to ensure that selection criteria were fulfilled. A two-night PSG (including one night of adaptation) was performed to evaluate the diagnosis and inclusion/exclusion criteria regardless if patients were on or off levodopa. After a 12-week treatment period patients were studied again for one night in the sleep laboratory. Subjective ratings were obtained at baseline, week 4, week 8 and at the endpoint after 12 weeks. In addition patients were monitored by phone calls to note any adverse events and to determine whether to increase the dosage of the study drug, to decrease levodopa and to decrease domperidone. The time schedule of phone calls was variable and the frequency mostly dependent on the presence of simultaneous levodopa therapy.
# Dosing. Study medication was available in tablets containing 0.5 mg, 1 mg or 2 mg Cabergoline (Cabaseril®, Pharmacia & Upjohn, Erlangen, Germany). Medication was taken 2 hours prior to bedtime. Initial therapy consisted of one 0.5 mg tablet. […] The increased dose could be decreased again if necessary. All patients were initially comedicated with domperidone 20 mg t.i.d. which could be tapered and stopped if possible. Subjects who were pretreated with levodopa were asked to decrease levodopa simultaneously if possible.
# Subjective ratings. After each night of recording and at each visit at week 2 and 4, patients rated the severity of illness (normal to extremely ill), the therapeutic effects by rating their global improvements by use of the Patients Global Impressions (general condition very much worse to very much better), the severity of RLS symptoms during the time of falling asleep, during the night and during the day (scale: 0=not present to 10=very strong) and sleep satisfaction (very unsatisfied to very satisfied). In addition patients rated their quality of life, concerning well being and complaints during the previous week, using modified 50-mm Hamburger Visual Analogue Scale. Patients also filled in a sleep diary at each study visit rating the following symptoms: global assessment of sleep (very bad to very good night), sleep latency, sleep time, frequency of awakenings and urge to move the legs at time falling asleep, during the night and during the day (scale: 0=not present to 10=very strong).
# Statistical analysis. Statistical evaluation was performed as intent-to-treat analysis using descriptive statistics.
# [5] = test system: D2 and D3 molecular receptors; conditions: cited from earlier work
# [6] = of 9 patients, under cabergoline
structure (smiles),measurement,setting,value
"C=CCN1C[C@H](C(=O)N(CCCN(C)C)C(=O)NCC)C[C@@H]2c3cccc4[nH]cc(c34)C[C@H]21 [Cabergoline, 1((6-allylergolin-8β-yl) -carbony.)-1-(3-(dimethylamino)propyl)-3-ethylurea]",D2 family agonist activity (in words),[1],full D2 family agonist
same,peripheral or other dopaminergic side effects,[2]; 4 mg cabergoline monotherapy,did not see peripheral or other dopaminergic side effects
same,total adverse events probably related to study drug,"[2]; 9 patients, 12 weeks",8
same,augmentation under cabergoline,[2]; 12-week treatment,lower incidence; also recorded: did not observe augmentation
same,duration and intensity of adverse events,[2]; all adverse events,temporary and considered to be mild to moderate
same,reversal of levodopa-evoked augmentation of RLS symptoms,[2]; all patients,reversible
same,discontinuation of levodopa during study,[2]; all patients initially on levodopa,discontinued levodopa treatment
same,tolerability (in words),[2]; domperidone stopped in all patients,excellent tolerability; also recorded: good tolerability
same,changes in laboratory data or ECG,[2]; in vivo,No significant changes
same,serious side effects / serious adverse events,[2]; in vivo,no serious side effects; also recorded: no serious adverse events
same,withdrawal / discontinuation of patients,[2]; in vivo,no patient withdrew; also recorded: no patient discontinued
same,patients with adverse events probably related to study drug,[2]; of 9 patients,5 patients
same,diarrhea,[2]; probably related side effects,1
same,dizziness,[2]; probably related side effects,2
same,headache,[2]; probably related side effects,2
same,vertigo,[2]; probably related side effects,2
same,nausea,"[2]; probably related, led to temporary dose reduction",1 patient
same,tolerance to treatment (in words),[3],low tolerance; also recorded: lack of tolerance
same,subjective and objective sleep parameters (in words),"[4]; 12-week treatment, 1 to 4 mg (mean 2.1 mg)",marked improvement
same,relief of RLS symptoms (in words),"[4]; all patients, 12 weeks, 1 to 4 mg single evening dose",significant relief or became free of RLS symptoms; also recorded: complete or significant relief of RLS symptoms
same,times patients had to get up per night (sleep diary),"[4]; endpoint, baseline 2.1",0.6 times per night
same,duration of efficacy in RLS therapy,"[4]; human, in vivo",24 h
same,"markedly satisfied with sleep, number of patients","[4]; of 9 patients, endpoint",4
same,"moderately satisfied with sleep, number of patients","[4]; of 9 patients, endpoint",1
same,"moderately unsatisfied with sleep, number of patients","[4]; of 9 patients, endpoint",2
same,"severity of illness rated borderline (PGI), number of patients","[4]; of 9 patients, endpoint",2
same,"severity of illness rated moderately ill (PGI), number of patients","[4]; of 9 patients, endpoint",two
same,"severity of illness rated normal (PGI), number of patients","[4]; of 9 patients, endpoint, at baseline extremely (2), very (4) or markedly (3) ill",5
same,"very satisfied with sleep, number of patients","[4]; of 9 patients, endpoint, baseline very (1), markedly (6) or moderately (2) unsatisfied",2
same,"general condition much better (PGI), number of patients",[4]; [6],3
same,"general condition very much better (PGI), number of patients",[4]; [6],6
same,RLS severity during the time of falling asleep,"[4]; scale 0=not present to 10=very strong, last week, baseline 4.9±4.3",0.4±0.7
same,RLS severity during the day,"[4]; scale 0=not present to 10=very strong, last week, baseline 5.1±3.4",0.8±1.7
same,RLS severity during the night,"[4]; scale 0=not present to 10=very strong, last week, baseline 6.7±2.7",1.6±2.6
same,global quality of the previous night (sleep diary),"[4]; scale zero (very bad) to 10 (very good), endpoint, baseline 3.1",6.9
same,efficacy in restless legs syndrome (in words),"[4]; single evening dose, incl. severe RLS and levodopa augmentation",effective and well tolerated; also recorded: very effective and well tolerated
same,"quality of life (Hamburger Visual Analogue Scale), in words",[4]; vs. baseline conditions,much better
same,D2 versus D3 binding (in words),[5],greater D2 over D3 binding
